The text below walks through data of PMC4293695 (Bioorganic & medicinal chemistry letters, 2014).

The conditions of data set [1]: cited from earlier work.
The target in data set [2] is PCP site of the NMDA receptor. In kind it is binding. The conditions noted are these: read-out: [3H]TCP Ki; [3H]TCP as radioligand; rat brain membrane suspensions; mean from two experiments.

Consider `CN(C(=N)Nc1cccc2ccccc12)c1cccc(I)c1` [Ligand 1], for which the “measured logD” value in data set [1] is listed as 2.19.
As a reminder, the Ki is a dissociation constant, usually derived from enzyme kinetics or from competition with a known ligand. Take `CN(C(=N)Nc1cccc2ccccc12)c1cccc(Cl)c1F` [Ligand 34]: the Ki in data set [2] was 0.701 µM.
